# From US12459899B2, “Isoquinolinone derivatives, method for preparing the same, and pharmaceutical composition for preventing or treating poly(ADP-ribose) polymerase-1-related diseases, comprising the same as active ingredient” (DIGMBIO. INC., priority 2019, dated 2025)
# Biological target: PARP-1 (poly[ADP-ribose] polymerase 1) enzyme (Homo sapiens (Human), UniProt P09874)
# Assay: PARP-1 (poly[ADP-ribose] polymerase 1) enzyme inhibitory ability, Trevigen assay kit
# Format: biochemical
# Conditions: 1 nM compound; read-out: PAR P-1 Inhibitory ability at 1 nM
# Method in brief: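 Human PARP-1 activity was measured with a Trevigen assay kit in histone-coated 96-well plates rehydrated with 50 μL of 1×PARP buffer for 30 minutes. Enzyme (0.5 unit/well) and compound were preincubated 10 minutes at room temperature, then 25 μL of 1×PARP cocktail with biotinylated NAD and activated DNA was added for 1 hour.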
# Sequence of PARP-1 (poly[ADP-ribose] polymerase 1) enzyme (P09874 whole entry): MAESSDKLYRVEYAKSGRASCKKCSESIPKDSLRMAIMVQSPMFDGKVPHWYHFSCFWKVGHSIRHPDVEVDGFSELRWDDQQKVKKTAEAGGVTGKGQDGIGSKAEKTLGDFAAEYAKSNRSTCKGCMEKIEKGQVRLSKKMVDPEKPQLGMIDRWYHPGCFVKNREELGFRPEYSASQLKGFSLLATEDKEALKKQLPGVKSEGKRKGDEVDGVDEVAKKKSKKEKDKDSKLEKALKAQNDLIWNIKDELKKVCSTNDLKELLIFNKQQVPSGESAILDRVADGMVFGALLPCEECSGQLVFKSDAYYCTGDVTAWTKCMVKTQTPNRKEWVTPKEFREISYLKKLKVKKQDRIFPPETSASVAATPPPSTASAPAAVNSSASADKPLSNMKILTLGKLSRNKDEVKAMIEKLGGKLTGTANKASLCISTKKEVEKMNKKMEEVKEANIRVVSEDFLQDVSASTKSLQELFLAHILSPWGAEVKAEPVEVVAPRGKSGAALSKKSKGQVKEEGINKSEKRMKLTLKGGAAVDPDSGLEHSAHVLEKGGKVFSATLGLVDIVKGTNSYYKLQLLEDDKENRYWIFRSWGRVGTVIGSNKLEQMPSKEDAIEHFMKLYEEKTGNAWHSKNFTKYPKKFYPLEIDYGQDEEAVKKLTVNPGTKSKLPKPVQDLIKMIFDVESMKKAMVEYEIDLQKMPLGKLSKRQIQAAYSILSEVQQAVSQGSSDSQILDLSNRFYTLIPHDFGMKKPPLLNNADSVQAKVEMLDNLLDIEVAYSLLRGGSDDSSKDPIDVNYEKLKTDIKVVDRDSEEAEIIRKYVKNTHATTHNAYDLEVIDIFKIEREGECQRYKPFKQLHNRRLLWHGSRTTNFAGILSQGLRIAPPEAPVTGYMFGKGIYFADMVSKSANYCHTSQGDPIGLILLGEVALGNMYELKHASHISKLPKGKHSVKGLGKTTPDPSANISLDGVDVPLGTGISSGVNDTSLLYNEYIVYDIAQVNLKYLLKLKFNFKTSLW
row,inhibition at 0.001 µM [%],Compound
1,< 50,"Cc1ccc(F)c2c(=O)[nH]c(CCC(=O)N3CC=C(c4cc(C#N)ccc4F)CC3)cc12 [Example 137, 4-fluoro-3-(1-(3-(8-fluoro-5-methyl-1-oxo-1,2-dihydroisoquinolin-3-yl)propanoyl)-1,2,3,6-tetrahydropyridin-4-yl)benzonitrile]"
2,< 50,"Cc1ccc(F)c2c(=O)[nH]c(CCC(=O)N3CC=C(c4ccccc4F)CC3)cc12 [Example 138, 8-fluoro-3-(3-(4-(2-fluorophenyl)-3,6-dihydropyridin-1(2H)-yl)-3-oxopropyl)-5-methylisoquinolin-1(2H)-one]"
3,< 50,"Cc1ccc(F)c2c(=O)[nH]c(CCC(=O)N3CC=C(c4ccc(F)c(C#N)c4)CC3)cc12 [Example 139, 2-fluoro-5-(1-(3-(8-fluoro-5-methyl-1-oxo-1,2-dihydroisoquinolin-3-yl)propanoyl)-1,2,3,6-tetrahydropyridin-4-yl)benzonitrile]"
4,< 50,"Cc1ccc(F)c2c(=O)[nH]c(CCC(=O)N3CC=C(c4ccc(C#N)cn4)CC3)cc12 [Example 140, 1′-(3-(8-fluoro-5-methyl-1-oxo-1,2-dihydroisoquinolin-3-yl)propanoyl)-1′,2′,3′,6′-tetrahydro-[2,4′-bipyridine]-5-carbonitrile]"
5,< 50,"Cc1ccc(F)c2c(=O)[nH]c(CCC(=O)N3CC=C(c4ccc(C#N)c(F)c4)CC3)cc12 [Example 141, 2-fluoro-4-(1-(3-(8-fluoro-5-methyl-1-oxo-1,2-dihydroisoquinolin-3-yl)propanoyl)-1,2,3,6-tetrahydropyridin-4-yl)benzonitrile]"
6,< 50,"Cc1ccc(F)c2c(=O)[nH]c(CCC(=O)N3CCN(c4cccc(F)c4)CC3)cc12 [Example 142, 8-fluoro-3-(3-(4-(3-fluorophenyl)piperazin-1-yl)-3-oxopropyl)-5-methylisoquinolin-1(2H)-one]"
7,< 50,"Cc1ccc(F)c2c(=O)[nH]c(CCC(=O)N3CC=C(c4ccnc(F)c4)CC3)cc12 [Example 144, 8-fluoro-3-(3-(2′-fluoro-3,6-dihydro-[4,4′-bipyridine]-1(2H)-yl)-3-oxopropyl)-5-methylisoquinolin-1(2H)-one]"
8,< 50,"Cc1ccc(F)c2c(=O)[nH]c(CCC(=O)N3CC=C(c4ccc(C#N)nc4)CC3)cc12 [Example 145, 1′-(3-(8-fluoro-5-methyl-1-oxo-1,2-dihydroisoquinolin-3-yl)propanoyl)-1′,2′,3′,6′-tetrahydro-[3,4′-bipyridine]-6-carbonitrile]"
9,< 50,"COC(=O)c1ccc(N2CCN(C(=O)CCc3cc4c(C)ccc(F)c4c(=O)[nH]3)CC2)cc1 [Example 146, methyl 4-(4-(3-(8-fluoro-5-methyl-1-oxo-1,2-dihydroisoquinolin-3-yl)propanoyl)piperazin-1-yl)benzoate]"
10,< 50,"Cc1ccc(F)c2c(=O)[nH]c(CCC(=O)N3CCN(c4ccc(C(=O)O)cc4)CC3)cc12 [Example 147, 4-(4-(3-(8-fluoro-5-methyl-1-oxo-1,2-dihydroisoquinolin-3-yl)propanoyl)piperazin-1-yl)benzoic acid]"
11,< 50,"Cc1cc(F)cc2c(=O)[nH]c(CCC(=O)N3CCN(c4ccc(C#N)cc4)CC3)cc12 [Example 149, 4-(4-(3-(7-fluoro-5-methyl-1-oxo-1,2-dihydroisoquinolin-3-yl)propanoyl)piperazin-1-yl)benzonitrile]"
12,< 50,"Cc1cc(F)cc2c(=O)[nH]c(CCC(=O)N3CC=C(c4ccc(F)cc4)CC3)cc12 [Example 150, 7-fluoro-3-(3-(4-(4-fluorophenyl)-3,6-dihydropyridin-1(2H)-yl)-3-oxopropyl)-5-methylisoquinolin-1(2H)-one]"
13,< 50,"Cc1cc(F)cc2c(=O)[nH]c(CCC(=O)N3CCN(c4ccc(C#N)nc4)CC3)cc12 [Example 151, 5-(4-(3-(7-fluoro-5-methyl-1-oxo-1,2-dihydroisoquinolin-3-yl)propanoyl)piperazin-1-yl)picolinonitrile]"
14,< 50,"Cc1cc(F)cc2c(=O)[nH]c(CCC(=O)N3CCN(c4ccc(C#N)cn4)CC3)cc12 [Example 152, 6-(4-(3-(7-fluoro-5-methyl-1-oxo-1,2-dihydroisoquinolin-3-yl)propanoyl)piperazin-1-yl)nicotinonitrile]"
15,< 50,"Cc1cc(F)cc2c(=O)[nH]c(CCC(=O)N3CCN(c4ccc(C#N)c(F)c4)CC3)cc12 [Example 153, 2-fluoro-4-(4-(3-(7-fluoro-5-methyl-1-oxo-1,2-dihydroisoquinolin-3-yl)propanoyl)piperazin-1-yl)benzonitrile]"
16,< 50,"Cc1cc(F)cc2c(=O)[nH]c(CCC(=O)N3CCN(c4ccc(C#N)cc4F)CC3)cc12 [Example 154, 3-fluoro-4-(4-(3-(7-fluoro-5-methyl-1-oxo-1,2-dihydroisoquinolin-3-yl)propanoyl)piperazin-1-yl)benzonitrile]"

row,inhibition at 0.001 µM [%],Compound
1,< 50,"Cc1cc(F)cc2c(=O)[nH]c(CCC(=O)N3CCN(c4ccc(Cl)cc4)CC3)cc12 [Example 155, 3-(3-(4-(4-chlorophenyl)piperazin-1-yl)-3-oxopropyl)-7-fluoro-5-methylisoquinolin-1(2H)-one]"
2,< 50,"Cc1cc(F)cc2c(=O)[nH]c(CCC(=O)N3CCN(c4cc(C#N)ccc4F)CC3)cc12 [Example 156, 4-fluoro-3-(4-(3-(7-fluoro-5-methyl-1-oxo-1,2-dihydroisoquinolin-3-yl)propanoyl)piperazin-1-yl)benzonitrile]"
3,< 50,"Cc1cc(F)cc2c(=O)[nH]c(CCC(=O)N3CCN(c4cc(F)ccc4C#N)CC3)cc12 [Example 157, 4-fluoro-2-(4-(3-(7-fluoro-5-methyl-1-oxo-1,2-dihydroisoquinolin-3-yl)propanoyl)piperazin-1-yl)benzonitrile]"
4,< 50,"Cc1cc(F)cc2c(=O)[nH]c(CCC(=O)N3CCN(c4ccc(F)c(C#N)c4)CC3)cc12 [Example 158, 2-fluoro-5-(4-(3-(7-fluoro-5-methyl-1-oxo-1,2-dihydroisoquinolin-3-yl)propanoyl)piperazin-1-yl)benzonitrile]"
5,< 50,"Cc1cc(F)cc2c(=O)[nH]c(CCC(=O)N3CCN(c4ccc(F)cc4C#N)CC3)cc12 [Example 159, 5-fluoro-2-(4-(3-(7-fluoro-5-methyl-1-oxo-1,2-dihydroisoquinolin-3-yl)propanoyl)piperazin-1-yl)benzonitrile]"
6,< 50,"Cc1cc(F)cc2c(=O)[nH]c(CCC(=O)N3CC=C(c4cc(C#N)ccc4F)CC3)cc12 [Example 160, 4-fluoro-3-(1-(3-(7-fluoro-5-methyl-1-oxo-1,2-dihydroisoquinolin-3-yl)propanoyl)-1,2,3,6-tetrahydropyridin-4-yl)benzonitrile]"
7,< 50,"Cc1cc(F)cc2c(=O)[nH]c(CCC(=O)N3CC=C(c4ccc(F)cc4C#N)CC3)cc12 [Example 161, 5-fluoro-2-(1-(3-(7-fluoro-5-methyl-1-oxo-1,2-dihydroisoquinolin-3-yl)propanoyl)-1,2,3,6-tetrahydropyridin-4-yl)benzonitrile]"
8,< 50,"Cc1cc(F)cc2c(=O)[nH]c(CCC(=O)N3CC=C(c4ccc(F)cc4F)CC3)cc12 [Example 162, 3-(3-(4-(2,4-difluorophenyl)-3,6-dihydropyridin-1(2H)-yl)-3-oxopropyl)-7-fluoro-5-methylisoquinolin-1(2H)-one]"
9,< 50,"Cc1cc(F)cc2c(=O)[nH]c(CCC(=O)N3CC=C(c4cc(F)cc(C#N)c4)CC3)cc12 [Example 163, 3-fluoro-5-(1-(3-(7-fluoro-5-methyl-1-oxo-1,2-dihydroisoquinolin-3-yl)propanoyl)-1,2,3,6-tetrahydropyridin-4-yl)benzonitrile]"
10,< 50,"Cc1cc(F)cc2c(=O)[nH]c(CCC(=O)N3CC=C(c4cccc(F)c4)CC3)cc12 [Example 164, 7-fluoro-3-(3-(4-(3-fluorophenyl)-3,6-dihydropyridin-1(2H)-yl)-3-oxopropyl)-5-methylisoquinolin-1(2H)-one]"
11,< 50,"Cc1cc(F)cc2c(=O)[nH]c(CCC(=O)N3CCN(c4cc(F)cc(C#N)c4)CC3)cc12 [Example 166, 3-fluoro-5-(4-(3-(7-fluoro-5-methyl-1-oxo-1,2-dihydroisoquinolin-3-yl)propanoyl)piperazin-1-yl)benzonitrile]"
12,< 50,"Cc1cc(F)cc2c(=O)[nH]c(CCC(=O)N3CCN(c4cccc(F)c4)CC3)cc12 [Example 167, 7-fluoro-3-(3-(4-(3-fluorophenyl)piperazin-1-yl)-3-oxopropyl)-5-methylisoquinolin-1(2H)-one]"
13,< 50,"Cc1cc(F)cc2c(=O)[nH]c(CCC(=O)N3CC=C(c4ccnc(F)c4)CC3)cc12 [Example 168, 7-fluoro-3-(3-(2′-fluoro-3,6-dihydro-[4,4′-bipyridine]-1(2H)-yl)-3-oxopropyl)-5-methylisoquinolin-1(2H)-one]"
14,< 50,"O=C(CCc1cc2cccc(F)c2c(=O)[nH]1)N1CCN(C(=O)C2CCCCC2)CC1 [Example 170, 3-(3-(4-(cyclohexanecarbonyl)piperazin-1-yl)-3-oxopropyl)-8-fluoroisoquinolin-1(2H)-one]"
15,< 50,"Cc1ccc(F)c2c(=O)[nH]c(CCC(=O)N3CCN(C(=O)C4CCCCC4)CC3)cc12 [Example 171, 3-(3-(4-(cyclohexanecarbonyl)piperazin-1-yl)-3-oxopropyl)-8-fluoro-5-methylisoquinolin-1(2H)-one]"

row,Compound,inhibition at 0.001 µM [%]
1,"Cc1ccc(F)c2c(=O)[nH]c(CCC(=O)N3C4CCC3CN(c3ccc(C#N)cc3)C4)cc12 [Example 148, 4-(8-(3-(8-fluoro-5-methyl-1-oxo-1,2-dihydroisoquinolin-3-yl)propanoyl)-3,8-diazabicyclo[3.2.1]octan-3-yl)benzonitrile]",< 50

# Same assay, conditions: PARP-1 enzyme activity
row,IC50 [nM],Compound
1,4.05,"Cc1cc(F)cc2c(=O)[nH]c(CCC(=O)N3CCN(c4ccc(C#N)nc4)CC3)cc12 [Example 151, 5-(4-(3-(7-fluoro-5-methyl-1-oxo-1,2-dihydroisoquinolin-3-yl)propanoyl)piperazin-1-yl)picolinonitrile]"
2,0.85,"Cc1cc(F)cc2c(=O)[nH]c(CCC(=O)N3CCN(c4ccc(C#N)cn4)CC3)cc12 [Example 152, 6-(4-(3-(7-fluoro-5-methyl-1-oxo-1,2-dihydroisoquinolin-3-yl)propanoyl)piperazin-1-yl)nicotinonitrile]"
